According to patent US8318950B2, “N-acyl amino acid derivatives, a method for the preparation thereof, a pharmaceutical composition and use thereof as anti-allergic, anti-inflammatory and hypolipidemic agents” (Otkrytoe Aktsionernoe Obschestvo-Otechestvennye Lekarstva, priority 2005, dated 2012):

What was measured:
[1] = test system: guinea pig blood basophils; assay: In vitro ovalbumin (OA)-induced blood basophil degranulation of immunized guinea pig; type: cell-based; conditions: for inhibition at 1000 µM / inhibition at 100 µM / inhibition at 10 µM: Cavia porcellus, read-out: Complete degranulation inhibition (CDI)
Experimental: Leukocytes from guinea pig blood were isolated according to the Freemel's method [Immunologicheskiye Metody under edition of G. Frimel/Moscow., “Meditsina” publishers, 1987, p. 222 in the inventor's modification].
Guinea pigs of both sexes weighing from 600 to 800 g were used to conduct the test. The animals were once immunized with a mixture of 10 μg ovalbumin and 100 mg aluminum hydroxide per one animal according to Andersson [Anderson P. Antigen-induced bronchial anaphylaxis in actively sensitized guinea-pigs.//Allergy. 1980. Vol. 35. P. 63-71].
Under ester anesthesia, 15 ml blood were drawn from guinea pig heart. Double precipitation of cells using EDTA and a citrate-containing precipitating liquid was used to isolate basophils in the leukocyte suspension.
Blood was mixed with 5% EDTA.Na2 2H2O (“Sigma”) solution at 9:1 ratio and in 30 minutes it was subjected to mild centrifugation (for 12 minutes at 80 g). Supernatant was collected and centrifuged for 15 minutes at 500 g.
To the remaining cells, a citrate-containing precipitating liquid (3) was added at proportion 3:10 (it was thermostated at 37° C. for 30 minutes). A supernatant fraction enriched by leukocytes was centrifuged for 7 minutes at 100 g. To leukocyte precipitate, 0.85% NaCl solution was added and cellular concentration was brought to 30×10^3 μl.
Protocol of the in vitro basophil degranulation test [Spravochnil po klinicheskim laboratomym metodam issledovaniya (A reference book on clinical-laboratory examination methods)/Edited by E. A. Cost/Moscow, “Meditsina” publishers, 1975, p. 130].
For the test, a centrifuge tube (3 tubes per each sample) was filled with 300 μl cellular suspension, then salt solution of a tested compound (or a salt solution in the control of spontaneous and maximum degranulation) was added and pre-incubated at 37° C. for 15 minutes, then into each tube 300 μl 1% OA solution was added (in the control of spontaneous degranulation a salt solution in the same amount was added) and once more pre-incubated at 37° C. for 10 minutes. Functional leukocyte concentration was 10^4/μl. Samples (100 μl) were taken off from each tube into separate tubes to assess a complete basophil degranulation, and to the remained cells, a cooled salt solution was added (5 ml into each tube) to arrest degranulation reaction, then the tubes were centrifuged for 7 min at 100 g, and from precipitate, preparations for microscopy were prepared. The preparations were fixed and stained according to the method of Seder et al. [Seder R. A. et al. Mouse splenic and bone marrow cell populations that express high—affinity Fcε receptors and produce interleukin-4 are highly enriched in basophils.//Proc. Natl. Acad. USA, 1991, V. 88, P. 2835-2839].
In order to detect a specific basophil granulation, the dye 0.5% alcyanic blue (pH 1.0) was used, nuclei were additionally stained with safranin (0.1% solution in 1% acetic acid). The preparations were used to assess a total degranulation inhibition.
A total degranulation inhibition (DI) (%) was calculated according to the formula: […]
max—% of degranulated basophils at the maximum degranulation (OA)
spontaneous—% of degranulated basophils in spontaneous degranulation (control)
experimental—% of degranulated basophils following exposure to the tested compound.
Assessment of a Complete Basophil Degranulation
Samples selected following basophil degranulation test (100 μl each) were poured into tubes with the dye (0.5% alcyane blue, pH 1.0) at ratio 1:1. Staining was carried out at room temperature for not less than 50 min. Stained basophils were calculated using the Fooks-Rosenthal chamber. Inhibition of a complete basophil degranulation (ICD) was calculated according to the formula: ICD(%)=1−[(Mm(c)−Mm(exper.)]/Mm(c)−Mm(OA)]×100, wherein
M m (c)—mean (by three samples) basophil number in the spontaneous basophil degranulation test
M±m (OA)—mean (by three samples) basophil number in the maximum antigen-induced basophil degranulation test; […]

[2] = test system: endogenous hypercholesterolemia in guinea pigs; assay: Model of endogenous hypercholesterolemia in guinea pigs (fat loading); type: in vivo, guinea pig; design: Serum total cholesterol / Serum total triglyceride levels: unit not given here; conditions: for Serum total cholesterol / Serum total triglyceride levels: fat loading + compound 500 μg/kg orally
Experimental: The study was carried out on male guinea pigs (Aguti line) weighing 304±25 g. The experiment lasted 31 days. The control group included 6 guinea pigs (intact animals). The compounds studied were administered from day 1 of the experiment (from day 1 of administering fat loading).
The animals of experimental groups received orally for 31 days a compound studied and fat loading. The compound studied at doses indicated below was administered in the form of an aqueous solution (0.5 ml per an animal); fat loading (a mixture of porcine fat and preliminary heated corn oil at 4:1 ratio by volume, at the rate of 5 ml/kg weight 0.5 h post administering the substance studied.
1) “control”—intact animals;
2) “fat”—animals that received fat loading only
3) “compound IV”—animals that received fat loading+compound IV at dose 500 μg/kg body weight;
4) “compound V”—animals that received fat loading+compound V at dose 500 μg/kg body weight.
Statistical processing was carried out using a mono-factorial analysis of variance.

[3] = test system: antigen-induced bronchial spasm; conditions: oral and intratracheal route, 50 μg/kg; cited from earlier work
[4] = test system: animals with atherogenic loading; conditions: WO 99/01103, similar biological experiment; cited from earlier work
[5] = test system: delayed type hypersensitivity; conditions: doses 50 and 500 μg/kg; cited from earlier work
[6] = test system: passive cutaneous anaphylaxis; conditions: in vivo; cited from earlier work
[7] = test system: carrageenan-induced rat paw edema; assay: Carrageenan rat paw edema; type: in vivo; conditions: 1% gel applied on the paw three times; paw volume 4 hours post carrageenan
Experimental: The experiments were performed on white outbred male rats weighing 250 g. A total amount of animals per an experiment was 12.
The model of carrageenan-induced edema seconding to the method of Winter et al. was used (Winter et al. Studies of the mediators of the acute inflammatory response induced in rats in different sites by carrageenan and turpentine.//J. Phamacol. 1971. V. 104. P. 15-29). 0.1 ml 1% carrageenan solution (SERVA) was subplantarly injected into the right rat paw. The animals were placed into individual chambers. Gel (1%) comprising a substance tested was applied on the paw three times: immediately following carrageenan administration, ate 1 and 2 hours post administration. 4 hours post administration of carrageenan, paw volumes were measured using a plethysmograph (Ugo Basile) Therapeutic effect of the gel was assessed by inhibition degree of inflammatory reaction in comparison with the intact left paw of the given animal and rat paw reaction of the control (untreated) group inflammatory reaction inhibition expressed in percent, was calculated according to the formula: […]

[8] = day 31, blood serum, 500 μg/kg orally (Table 24)
[9] = day 31, blood serum, 500 μg/kg orally (Table 25)

For `O=C(O)CCC(=O)N[C@@H](Cc1c[nH]cn1)C(=O)O` [Compound V, N^α-succinyl-L-histidine], the “Number of completely degranulated basophils” value (from here on “Number”) ([1]; 10^−3 M) was 35.3 ± 7.29%, the “Number” value ([1]; 10^−4 M) was 31.2 ± 6.8% and the “Number” value ([1]; 10^−5 M) was 24.6 ± 10.38%. For the same molecule, the inhibition at 1000 µM ([1]; 10^−3 M) was 10.6 ± 7.6%, the inhibition at 100 µM ([1]; 10^−4 M) was 18.9 ± 11.8% and the inhibition at 10 µM ([1]; 10^−5 M) was 44 ± 11.3%. For the same molecule, the Serum total cholesterol ([2]; Day 28) was 52.9 ± 6.5, the “Serum total triglyceride levels” value ([2]; Day 28) was 62.3 ± 5.4 and the Serum total cholesterol ([2]; Day 31) was 46.3 ± 4.1. The “Serum total triglyceride levels” value ([2]; Day 31) was 56.0 ± 6.1, the “lowered LDL cholesterol” value ([2]; by day 31 of the experiment) was 38% and the “lowered total cholesterol level” value ([2]; by day 31 of the experiment) was 37.8%. It also gave a Cholesterol, LDL [2, 8] of 41.9 ± 2.7 mg/100 ml, a Cholesterol, Total [2, 8] of 46.3 ± 4.1 mg/100 ml and a Cholesterol, VLDL [2, 8] of 2.1 ± 0.4 mg/100 ml. It also gave a Triglycerides, LDL [2, 9] of 23.1 ± 1.9 mg/100 ml, a Triglycerides, Total [2, 9] of 56 ± 6.1 mg/100 ml and a Triglycerides, VLDL [2, 9] of 22.5 ± 4.4 mg/100 ml.

In the case of `O=C(O)CCCC(=O)NCCc1cnc[nH]1` [Glutaryl histamine, glutaryl histamine, reference compound], the “Complete degranulation inhibition (CDI)” value ([1]; 10^−3 M) is reported as 9.3 ± 5.5%, the “Number” value ([1]; 10^−3 M) is reported as 31.6 ± 6.33% and the “Complete degranulation inhibition (CDI)” value ([1]; 10^−4 M) is reported as 24.1 ± 1.1%. The “Number” value ([1]; 10^−4 M) was 25.3 ± 3.38%, the “Complete degranulation inhibition (CDI)” value ([1]; 10^−5 M) was 0% and the “Number” value ([1]; 10^−5 M) was 29.8 ± 6.73%. For the same molecule, the “Decrease in bronchial spasm value as compared to the control” value [3] was > 50%, the “lowering total cholesterol level” value [4] was 9% and the “intensity of delayed type hypersensitivity” value [5] was “significantly lower intensity”. For the same molecule, the “manifestations of passive cutaneous anaphylaxis” value [6] was “capable of lowering manifestations”.

With `C[C@]12CCC(=O)C=C1CC[C@@H]1[C@@H]2[C@@H](O)C[C@@]2(C)[C@H]1CC[C@]2(O)C(=O)CO` [Hydrocortisone, reference compound] the “Number” value ([1]; 10^−3 M) was 10.0 ± 0.7%, the “Number” value ([1]; 10^−4 M) was 17.3 ± 0.9% and the “Number” value ([1]; 10^−5 M) was 20.0 ± 1.3%. It also gave an inhibition at 1000 µM ([1]; 10^−3 M) of 71 ± 1.6%, an inhibition at 100 µM ([1]; 10^−4 M) of 48 ± 0.8% and an inhibition at 10 µM ([1]; 10^−5 M) of 40 ± 0.6%.

`COC(=O)[C@H](Cc1c[nH]cn1)NC(=O)CCC(=O)O` [VI, N^α-succinyl-L-histidine methyl ester] gave an inhibition of edema [7] of 44%.

`COC(=O)[C@H](Cc1c[nH]c2ccccc12)NC(=O)CCCC(=O)O` [XIII, N^α-glutaryl-L-tryptophane methyl ester] showed an inhibition of edema [7] of 40%.

`O=C(O)Cc1ccccc1Nc1c(Cl)cccc1Cl` [diclofenac, reference compound] showed an inhibition of edema [7] of 62%.
